Laboratory results taken from article PMC8868508, “Kassporin-KS1: A Novel Pentadecapeptide from the Skin Secretion of Kassina senegalensis: Studies on the Structure-Activity Relationships of Site-Specific “Glycine-Lysine” Motif Insertions” (Antibiotics, 2022).
Values after ≈ are worked out from the molar mass of the structure shown. Where two headings read alike, the source gives them in different places. Where a SMILES comes first, the peptide text is derived from it.

Assays:
[1] = test system: E. coli NCTC 10418 biofilm; format: cell-based, Escherichia coli; conditions: NCTC 10418, 24 h
Protocol: (§1) As previously described, the MBIC and MBEC of the peptides against bacteria were determined. Staphylococcus aureus (S. aureus, NCTC 10788) and Escherichia coli (E. coli, NCTC 10418) was selected as representative strains. For the MBIC assay, the cultures were sub-cultured to their logarithmic growth phases. The diluted bacterial suspension was incubated with the peptide solution overnight in a 96-well plate. The resulting biofilm was washed with PBS solution, fixed with methanol, and dried. The biofilm was then stained with 0.1% (w/v) crystal violet, washed again with PBS, and dissolved in 30% acetic acid. The absorbance of the solution in each well at 595 nm was counted by the Synergy HT Microplate Spectrophotometer (Biotech, Minneapolis, MN, USA). Compared with the negative control, the lowest concentration that inhibits biofilm formation was MBIC. For the determination of MBEC, the diluted bacterial solution was incubated in the 96-well plate for 24 h, with 100 µL per well. Then, the biofilm was washed and re-incubated with 100 µL peptide-medium solution. After 24 h, the biofilm was again washed, stained, and dissolved as in the MBIC assay. Each well was detected at 595 nm by the same plate reader in MBIC. Compared with the negative control, the lowest concentration to eliminate biofilm was MBEC.

[2] = test system: S. aureus NCTC 10788; format: cell-based, Staphylococcus aureus
Protocol: (§2) The inhibition of representative microorganisms by peptides was evaluated by the modified broth dilution technique. The microorganisms included Candida albicans (C. albicans, NCTC 10231), Enterococcus faecalis (E. faecalis, NCTC 12697), Staphylococcus aureus (S. aureus, NCTC 10788), Klebsiella pneumoniae (K. pneumoniae, ATCC 43816), Methicillin-resistant Staphylococcus aureus (MRSA, ATCC 12493), Pseudomonas aeruginosa (P. aeruginosa, ATCC 27853), and Escherichia coli (E. coli, NCTC 10418).
(§3) Firstly, the selected microorganism was incubated in conical flasks with 100 mL Mueller Hinton broth (MHB) overnight. Then, the bacterial solution was sub-cultured in 20 mL MHB until it reached the logarithmic growth phase. Meanwhile, the peptide solution was prepared. The peptide was dissolved into 128 × 10^2 μM solution with phosphate-buffered saline (PBS) and then double-diluted into 64, 32, 16, 8, 4, 2, and 1 × 10^2 μM. Each sample solution and positive control ([…] Norfloxacin) was added to 96-well plates and divided into five replicates, 1 μL per well. The blank control was 100 µL MHB, and the growth control was 100 µL bacterial solutions. When the optical density (OD) value corresponding to the microbial concentration reached the value (Gram-positive bacteria: 0.23; Gram-negative bacteria: 0.4; fungi: 0.15) in their logarithmic growth phase, the microorganisms were diluted to the required concentration with MHB (Gram-negative and Gram-positive bacteria: 5 × 10^5 CFU/mL; fungi: 1 × 10^6 CFU/mL).
(§4) The diluted bacterial solution was then added to the 96-well plate at 99 µL per well. The plate was incubated at 37 °C and observed the next day. The MIC was the corresponding lowest peptide concentration without microbial growth. The absorbance of the 96-well plate at 550 nm was measured by Synergy HT Microplate Spectrophotometer (Biotech, Minneapolis, MN, USA), and the obtained values were quantitatively analyzed by Prism 7 software. Subsequently, the concentrations corresponding to the clear solution were removed from the 96-well plate in 10 µL and dropped onto the solidified MHA. The Petri dishes with MHA were cultured overnight, observed and the minimum peptide concentration without colonies was MBC.

[3] = test system: E. coli NCTC 10418; format: cell-based, Escherichia coli
Protocol: as §2, §3, §4

[4] = test system: P. aeruginosa ATCC 27853; format: cell-based, Pseudomonas aeruginosa
Protocol: as §2, §3, §4

[5] = test system: S. aureus infected Galleria mellonella larvae; conditions: in vivo
Protocol: Galleria mellonella larvae of equal weight were injected with bacterial suspensions to observe the peptides’ efficacy. First, the wax worm larvae were weighed (Livefood UK Ltd., Rooks Bridge, UK). The appropriate weight for the assay was 250 ± 25 mg. Then, S. aureus NCTC 10788 was cultured in sterilized saline until the bacterial suspension density reached 10^8 CFU/mL. […] Then, 10 µL peptide solutions were injected into the larvae at 6, 12, and 24 mg/kg. The positive control was the dosage of 20 mg/kg Vancomycin. The negative control was the administration of saline. In total, nine wax worms were included in each group. After being injected, the number of larvae deaths was recorded every 12 h until it reached 120 h.

[6] = test system: C. albicans NCTC 10231; format: cell-based, Candida albicans
Protocol: as §2, §3, §4

[7] = test system: S. aureus NCTC 10788; format: cell-based, Staphylococcus aureus; remark: listed apart in the source
Protocol: As mentioned in the previous study, the salt and pH sensitivities of AMPs exposed to physiological concentrations of salts or non-neutral environments were tested. MHB containing different ion concentrations (150 mM NaCl, 1 mM MgCl2, and 4 μM FeCl3) and MHB with pH 6.0 and pH 8.0 were prepared. The selected microorganism Staphylococcus aureus (S. aureus, NCTC 10788) was incubated overnight in the prepared medium, sub-cultured to the logarithmic phase, and then diluted to 5 × 10^5 CFU/mL. The subsequent steps were carried out as the MIC/MBC assay.

[8] = test system: MRSA NCTC 12493; format: cell-based, Methicillin-resistant Staphylococcus aureus
[9] = test system: K. pneumoniae ATCC 43816; format: cell-based, Klebsiella pneumoniae
Protocol: as §2, §3, §4

[10] = test system: S. aureus NCTC 10788 biofilm; format: cell-based, Staphylococcus aureus; conditions: NCTC 10788, 24 h
Protocol: as §1

[11] = test system: E. faecalis NCTC 12697; format: cell-based, Enterococcus faecalis
Protocol: as §2, §3, §4

For CC[C@H](C)[C@H](NC(=O)[C@H](C)NC(=O)[C@H](CCC(=O)O)NC(=O)[C@H](CCC(N)=O)NC(=O)[C@@H](NC(=O)[C@H](CC(C)C)NC(=O)[C@H](C)NC(=O)[C@H](CC(C)C)NC(=O)[C@H](C)NC(=O)[C@H](CC(C)C)NC(=O)[C@@H](N)Cc1ccccc1)[C@@H](C)CC)C(=O)N[C@@H](C)C(=O)N[C@@H](CCCCN)C(=O)N[C@@H](CC(C)C)C(=O)N[C@@H](CCCCN)C(N)=O [QUB-1641] (H-FLALALIQEAIAKLK-NH2), the MBEC [1] was >128/>128 µM, the MBIC [1] was >128/>128 µM and the MBC [2] was 64 µM. For the same compound, the MIC [2] was 64 µM, the MBC [3] was over 128 µM and the MIC [3] was over 128 µM. The MBC [4] was over 128 µM, the MIC [4] was over 128 µM and the “effect of injection on larvae” value [5] was “causing the larvae to die directly after injection”. For the same compound, the MBC [6] was over 128 µM, the MIC [6] was over 128 µM and the MBC [7] was over 128 µM. For the same compound, the MBC [8] was 128 µM (≈ 210 µg/mL), the MIC [8] was 64 µM (≈ 105 µg/mL) and the MBC [9] was over 128 µM. For the same compound, the MIC [9] was over 128 µM, the MBEC [10] was 128/>128 µM and the MBIC [10] was 128/>128 µM. The MBC [11] was 128 µM and the MIC [11] was 64 µM.
